Molecules are shown by their SMILES.

The nature of one data set: method code SF-AS, from PMID: 594121.
Conditions: not given
In the case of `O=C(CN1CCCCC1)Nc1ccccc1F`, the lipophilicity (logP) (as a rule, the decadic logarithm of the partition coefficient of the neutral form, usually between octanol and water) was found to be 2.16.

Consider `O=C(CN1CCCCC1)Nc1cccc(Cl)c1`, for which the logP was determined as 3.45.

On to `CCOc1cccc(NC(=O)CN2CCCCC2)c1`, for which the lipophilicity (logP) is 3.17.

Compound `O=C(CN1CCCCC1)Nc1ccccc1Br` displayed a logP of 2.94.

Take `O=C(CN1CCCCC1)Nc1ccc(C(F)(F)F)cc1`: the lipophilicity (logP) came to 3.06.

As for `O=C(CN1CCCCC1)Nc1ccccc1[N+](=O)[O-]`, the logP is 2.75.

`Cc1ccc(NC(=O)CN2CCCCC2)cc1` yielded a logP of 2.95.

`O=C(CN1CCCCC1)Nc1ccccc1C(F)(F)F` showed a logP of 3.09.

`O=C(CN1CCCCC1)Nc1cccc([N+](=O)[O-])c1`: the log partition coefficient (logP) turned out to be 2.59.

Consider `Cc1ccccc1NC(=O)CN1CCCCC1`, for which the logP turned out to be 2.26.

In the case of `O=C(CN1CCCCC1)Nc1ccc(F)cc1`, the logP is 2.7.

The compound `O=C(CN1CCCCC1)Nc1cccc(F)c1` registered a log partition coefficient (logP) of 2.85.

For `O=C(CN1CCCCC1)Nc1ccccc1Cl`, the logP stood at 2.76.

As to `COc1ccccc1NC(=O)CN1CCCCC1`, the lipophilicity (logP) is 2.85.

As for `COc1cccc(NC(=O)CN2CCCCC2)c1`, the logP came out at 2.71.

The compound `O=C(CN1CCCCC1)Nc1cccc(C(F)(F)F)c1` displayed a logP of 3.12.

With `Cc1cccc(NC(=O)CN2CCCCC2)c1`, the log partition coefficient (logP) came to 2.97.

As to `CCOc1ccccc1NC(=O)CN1CCCCC1`, the logP worked out at 3.04.

Still in this data set, the particulars now being: pH 7.4.
For `O=C(CN1CCCCC1)Nc1cccc(Br)c1`, the log distribution coefficient (logD) (in general, lipophilicity at a set pH, counting ionised and neutral species) was found to be 2.93.

For `O=C(CN1CCCCC1)Nc1ccc([N+](=O)[O-])cc1`, the logD is 2.25.

As for `O=C(CN1CCCCC1)Nc1ccc(Br)cc1`, the log distribution coefficient (logD) was determined as 2.88.

Take `O=C(CN1CCCCC1)Nc1ccc(I)cc1`: the pH-dependent lipophilicity (logD) worked out at 3.21.

On to `O=C(CN1CCCCC1)Nc1cccc(I)c1`, for which the logD is 3.23.

`CCOc1ccc(NC(=O)CN2CCCCC2)cc1` yielded a log distribution coefficient (logD) of 2.82.

`O=C(CN1CCCCC1)Nc1ccccc1` displayed a logD of 2.41.

These data come from the SangsterLogP compilation.
